From patent publication US20230190871A1, “METHODS AND COMPOSITIONS FOR TREATMENT OF VIRAL INFECTIONS” (priority 2020, published 2023)
Read-outs that look alike come from different tables or passages of the source.

How the values were obtained:
[1] = tested on: SARS CoV-2 (USA_WA1/2020); assay type: cell-based
[2] = tested on: Vero E6 cells; conditions: African green monkey; for Cell Health: cell death / Cell Health: cells death: 48 h
[3] = tested on: c19orf66 protein expression; assay: doxycycline-induced c19orf66 protein expression by western blot in transduced Vero-E6 cells; assay type: cell-based; conditions: bulk sorted cells re-induced with 0, 0.8, 4, 20, 100 or 500 ng/mL
[4] = tested on: EGFP expression; assay: doxycycline-induced EGFP reporter expression (microscopy / flow cytometry) in transduced Vero-E6 cells; assay type: cell-based

| Molecule | number of infected cells (% infected cells) [1] | viral inhibition relative to remdesivir control [1] | Cell Health: cell death ([2]; 10 ng/mL) | Cell Health: cell death ([2]; 20 ng/mL) | Cell Health: cells death ([2]; 50 ng/mL) | Cell Health: cells death ([2]; 100 ng/mL) | Cell Health: doxycycline concentration at which cell death is observed ([2]; 96 h) | doxycycline concentration inducing c19orf66 (western blot) [3] | EGFP: doxycycline concentration at which EGFP is visible ([4]; Bulk Sorted, 48 hours) | EGFP: doxycycline concentration giving strong signal ([4]; Bulk Sorted, 48 hours) | EGFP: doxycycline concentration at which EGFP is visible ([4]; Bulk Sorted, 96 hours) | EGFP: doxycycline concentration at which EGFP is visible ([4]; Clone 9, 48 hours) | EGFP: doxycycline concentration at which EGFP is visible ([4]; Clone 9, 96 hours) | EGFP: doxycycline concentration at which EGFP is visible ([4]; Clone 21, 48 hours) | EGFP: doxycycline concentration giving strong signal ([4]; Clone 21, 48 hours) | EGFP: doxycycline concentration at which EGFP is visible ([4]; Clone 21, 96 hours) |
| --- | --- | --- | --- | --- | --- | --- | --- | --- | --- | --- | --- | --- | --- | --- | --- | --- |
| C19orf66: Chromosome 19 Open Reading Frame 66 protein, interferon-stimulated gene; here expressed from a doxycycline-inducible lentiviral construct | reduction | comparable to remdesivir | – | – | – | – | – | – | – | – | – | – | – | – | – | – |
| C[C@H]1c2cccc(O)c2C(=O)C2=C(O)[C@]3(O)C(=O)C(C(N)=O)=C(O)[C@@H](N(C)C)[C@@H]3[C@@H](O)[C@@H]21 [doxycycline] | – | – | 50% cell death at 10 ng/mL and worse at higher concentrations. | 50% | 20% | 40% | 10 ng/mL | at least 20 ng/mL | 10 ng/mL | 20 ng/mL | Visible at ≧ 10 ng/mL | Visible at 10 ng/mL and higher concentrations. | Visible at ≧ 10 ng/mL | 5 ng/mL | 10 ng/mL | Visible at ≧ 10 ng/mL |
